{"source": "patent US20030032587A1", "about": "“Urocortin peptides” (The Salk Institute for Biological Studies, priority 1995, published 2003)", "key": {"[1]": {"system": "primary murine anterior pituitary cells", "assay_type": "cell-based", "description": "A straightforward assay using rat anterior pituitary cells in monolayer culture can be carried out to determine whether a candidate peptide thereof will function as a CRF agonist and stimulate ACTH secretion by activating CRF receptors on such cells. The procedure which is used is that generally set forth in Endocrinology, 91, supra. A very similar assay is used to test for antagonistic properties, using a challenge dose of oCRF or the like.\nTo test the ability of purified Ucn or another candidate Ucn-like peptide to function as a CRF agonist and to promote ACTH production and/or secretion, cultures of dispersed primary murine anterior pituitary cells (0.15×10^6 cells/well are used), as generally described in Vale et al. Meth. Enzym., 103, 565-577 (1983), and in Endocrinology, 91, 562 (1972). These cultures are maintained in 0.5 ml/well of β-PJ (a reagent available from Kansas City Biochemicals) containing 2% fetal bovine serum. On the morning of culture day 5, the cells are washed 3 times with β-PJ containing 0.1% bovine serum albumin and then incubated for 1 hour at 37° C. in the same medium. The medium is then replaced with Ucn, or an analog thereof, diluted in β-PJ containing 0.1% bovine serum albumin. Incubations are terminated after 3 hours, at which time the medium is removed and stored at −20° C. until ACTH radioimmunoassays are performed using a suitable kit, such as that commercially available from Diagnostic Products Corporation of Los Angeles, Calif. Secreted ACTH is measured using Allfit computer program with results expressed as the average±s.e.m. of 3 replicate bioassays."}, "rats [2]": {"system": "rats", "assay": "ACTH secretion in vivo, ACTH level in plasma"}, "rats [3]": {"system": "rats", "assay": "fall in mean arterial blood pressure after peripheral (iv) administration", "assay_type": "in vivo"}, "murine CRF-R2β": {"molecular_target": "T1, murine CRF-R2β (Mus musculus, UniProt Q60748)", "T1 construct": "expressed in transfected cells", "T1 sequence (Q60748 1-431 isoform Q60748-2)": "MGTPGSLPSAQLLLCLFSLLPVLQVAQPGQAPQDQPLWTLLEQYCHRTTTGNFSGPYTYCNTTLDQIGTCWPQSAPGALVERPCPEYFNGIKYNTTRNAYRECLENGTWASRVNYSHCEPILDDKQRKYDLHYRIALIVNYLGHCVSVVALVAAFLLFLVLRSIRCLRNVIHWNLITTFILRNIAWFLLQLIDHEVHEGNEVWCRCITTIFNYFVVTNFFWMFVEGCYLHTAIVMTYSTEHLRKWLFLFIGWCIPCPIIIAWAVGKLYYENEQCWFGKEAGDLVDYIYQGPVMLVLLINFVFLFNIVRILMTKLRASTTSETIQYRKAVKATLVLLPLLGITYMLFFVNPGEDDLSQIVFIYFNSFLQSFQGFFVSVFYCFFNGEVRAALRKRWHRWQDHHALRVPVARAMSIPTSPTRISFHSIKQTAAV", "assay": "elevation of intracellular cAMP in cells expressing mCRF-R2β", "assay_type": "cell-based", "settings": "read-out: ED50, elevation of cAMP", "description": "CRF-R is used to refer to a family of receptor protein subtypes which participate in the G-protein-coupled response of cells to CRF and Ucn-like ligands. CRF-Rs are coupled by heterotrimeric G-proteins to various intracellular enzymes, ion channels, and transporters. The G-proteins associate with the receptor proteins at the intracellular face of the plasma membrane. An agonist binding to a CRF-R catalyzes the exchanges of GTP for GDP on the α-subunit (G-protein “activation”), resulting in its dissociation and stimulation of one (or more) of the various signal-transducing enzymes and channels. G-protein preferentially stimulates particular effectors, and the specificity of signal transduction may be determined, therefore, by the specificity of G-protein/receptor interaction. CRF-R proteins mediate signal transduction through the modulation of adenylate cyclase and perhaps through PI turnover. For example, when CRF or Ucn binds to and activates the CRF-R, adenylate cyclase causes an elevation in the level of intracellular cAMP. […] Such transformed cells are monitored for either an increase or decrease in the level of intracellular CAMP which provides a determination of the effectiveness of the potential agonist or antagonist. Methods for measuring intracellular levels of cAMP, or measuring cyclase activity, are well known in the art."}, "human CRF-R2β": {"system": "human CRF-R2β", "assay": "competitive displacement binding assay, CRF-R2β stably expressed in CHO cells", "settings": "read-out: Ki (95% confidence limits); CRF-R2β in stably transfected CHO cells; displacement of [125I-Tyr0]Ucn", "procedure": "Binding assays with cells expressing human CRF-R1 are carried out as described in the Chen et al. P.N.A.S., supra. The affinities of test peptides for CRF-R1 and CRF-R2β stably expressed in CHO cells were determined by competitive displacement of ^125I-(Nle^21, Tyr^32) ovine CRF (for CRF-R1) or of [^125II-Tyr^∘]Ucn (for CRF-R2β) as described."}, "[4]": {"molecular_target": "T2, human CRF binding protein (hCRF-BP) (Homo sapiens, UniProt P24387)", "T2 construct": "made in house; host or cells: recombinant CHO cells, conditioned medium", "T2 sequence (P24387 25-322)": "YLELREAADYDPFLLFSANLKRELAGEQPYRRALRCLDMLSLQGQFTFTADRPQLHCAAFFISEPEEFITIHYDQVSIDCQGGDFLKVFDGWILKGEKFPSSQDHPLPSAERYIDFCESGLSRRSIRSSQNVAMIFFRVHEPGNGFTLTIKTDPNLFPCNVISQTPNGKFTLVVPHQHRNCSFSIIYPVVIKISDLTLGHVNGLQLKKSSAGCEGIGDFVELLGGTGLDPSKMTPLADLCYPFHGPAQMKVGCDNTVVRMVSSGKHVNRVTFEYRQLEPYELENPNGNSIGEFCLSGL", "assay": "competitive hCRF-BP ligand binding assay", "settings": "radioligand 125I[Nle21,Tyr32]-oCRF"}, "[5]": {"molecular_target": "CRF receptors on anterior pituitary cells in culture", "assay": "cell-based or functional assay"}, "[6]": {"molecular_target": "T3, human CRF binding protein (human, UniProt P24387 25-322)", "T3 construct": "also called hCRF-BP; CRF-BP", "T3 sequence (looked up)": "T2 sequence (P24387 25-322)", "assay": "competitive hCRF-BP ligand binding assay with [125I-DTyr0]hCRF; reference peptide", "procedure": "After incubating with the primary and secondary antisera for 30 minutes each, 1 ml of saline wash is added, and the test tubes are centrifuged at 2000× g for 20 minutes at 4° C. Precipitates are counted in a gamma counter. Inhibitory binding affinity constant (Kᵢ) values are determined using parameters calculated by the LIGAND computer program, Munson et al., Anal. Biochem., 107, 220 (1980), and a Vax/VMS computer system."}, "[7]": {"molecular_target": "T3, human CRF binding protein", "assay": "competitive hCRF-BP ligand binding assay with 125I[Nle21,Tyr32]-oCRF"}, "[8]": {"molecular_target": "human CRF-R2β, stably transfected CHO cells (human) (UniProt Q13324)", "assay": "competitive displacement of [125I-Tyr0]Ucn from stably transfected CHO cells expressing human CRF-R2β; 95% confidence limits in brackets"}, "[9]": {"molecular_target": "T4, human CRF-R1 (cloned hCRF-R1), stably expressed in CHO cells (human, UniProt P34998 24-415)", "T4 construct": "whole, on cells; also called hCRF-RA", "T4 sequence (looked up)": "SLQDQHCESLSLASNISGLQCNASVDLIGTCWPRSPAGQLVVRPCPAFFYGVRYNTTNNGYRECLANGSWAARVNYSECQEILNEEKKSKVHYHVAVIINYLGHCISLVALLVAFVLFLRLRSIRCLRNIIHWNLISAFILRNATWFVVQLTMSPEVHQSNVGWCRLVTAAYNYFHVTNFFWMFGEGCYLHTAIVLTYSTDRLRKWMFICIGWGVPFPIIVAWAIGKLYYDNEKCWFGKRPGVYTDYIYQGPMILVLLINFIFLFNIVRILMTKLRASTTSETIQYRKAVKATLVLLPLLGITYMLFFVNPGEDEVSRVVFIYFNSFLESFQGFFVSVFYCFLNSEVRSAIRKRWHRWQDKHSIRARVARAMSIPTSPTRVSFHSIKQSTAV", "assay": "competitive displacement of 125I-(Nle21,Tyr32) ovine CRF from CHO cells stably expressing hCRF-R1; LIGAND program, 95% confidence limits in brackets", "procedure": "Binding assays with cells expressing human CRF-R1 are carried out as described in the Chen et al. P.N.A.S., supra."}}, "note": "Where no end group is shown, it is not given here."}
{"molecule": "CC[C@H](C)[C@H](NC(=O)[C@H](CO)NC(=O)[C@H](CC(C)C)NC(=O)[C@@H]1CCCN1C(=O)[C@@H]1CCCN1C(=O)[C@H](CC(=O)O)NC(=O)[C@@H](N)CC(=O)O)C(=O)N[C@@H](CC(=O)O)C(=O)N[C@@H](CC(C)C)C(=O)N[C@H](C(=O)N[C@@H](Cc1ccccc1)C(=O)N[C@@H](Cc1c[nH]cn1)C(=O)N[C@@H](CC(C)C)C(=O)N[C@@H](CC(C)C)C(=O)N[C@@H](CCCNC(=N)N)C(=O)N[C@H](C(=O)N[C@@H](CC(C)C)C(=O)N[C@@H](CC(C)C)C(=O)N[C@@H](CCC(=O)O)C(=O)N[C@@H](CC(C)C)C(=O)N[C@@H](C)C(=O)N[C@@H](CCCNC(=N)N)C(=O)N[C@H](C(=O)N[C@@H](CCC(N)=O)C(=O)N[C@@H](CO)C(=O)N[C@@H](CCC(N)=O)C(=O)N[C@@H](CCCNC(=N)N)C(=O)N[C@@H](CCC(=O)O)C(=O)N[C@@H](CCCNC(=N)N)C(=O)N[C@@H](C)C(=O)N[C@@H](CCC(=O)O)C(=O)N[C@@H](CCC(N)=O)C(=O)N[C@@H](CC(N)=O)C(=O)N[C@@H](CCCNC(=N)N)C(=O)N[C@H](C(=O)N[C@H](C(=O)N[C@@H](Cc1ccccc1)C(=O)N[C@@H](CC(=O)O)C(=O)N[C@@H](CO)C(=O)N[C@H](C(N)=O)C(C)C)[C@@H](C)CC)[C@@H](C)CC)[C@@H](C)O)[C@@H](C)O)[C@@H](C)O", "note": "[rUcn]", "values": [{"measurement": "biopotency for ACTH secretion compared with oCRF", "setting": "[1]; cultured rodent pituitary cells", "value": "more potent than oCRF"}, {"measurement": "stimulates the secretion of ACTH and β-END-LI (β-endorphin)", "setting": "[1]; result in words", "value": "strongly stimulates"}, {"measurement": "ACTH level in plasma", "setting": "rats [2]; 1 μg/kg dose, at 30 minutes", "value": "659 ± 53", "unit": "pg/mL"}, {"measurement": "ACTH level in plasma, effect compared with r/hCRF", "setting": "rats [2]; at 1 hour and at 2 hours", "value": "greater effect continues"}, {"measurement": "fall in mean arterial blood pressure", "setting": "rats [3]; administered peripherally, e.g. iv, dose as low as 250 ng for a rat of about 250 to 275 grams", "value": "marked fall"}, {"measurement": "lowers blood pressure, times as much as either sfUI or r/hCRF", "setting": "rats [3]; dose of about 3.77 μg/kg", "value": "2-3 times"}, {"measurement": "EC50", "setting": "murine CRF-R2β", "value": "0.18 ± 0.04", "unit": "nM"}, {"measurement": "Ki", "setting": "human CRF-R2β", "value": 0.41, "unit": "nM"}, {"measurement": "binding to hCRF-BP compared with sauvagine and sfUI", "setting": "[4]", "value": "much more strongly than does sauvagine, but less strongly than sfUI"}, {"measurement": "binds hCRF-BP more strongly than r/hCRF, factor", "setting": "[4]", "value": "about 2"}]}
{"molecule": "[Tyr0]rUcn(1-40) (peptide)", "values": [{"measurement": "ACTH secretion, anterior pituitary cell cultures, potency relative to r/hCRF", "setting": "[5]", "value": 2.2, "unit": "times r/hCRF"}]}
{"molecule": "DLTFHLLREVLEMARAEQLAQQAHS", "note": "[hCRF(9-33)]", "values": [{"measurement": "binding result", "setting": "[6]", "value": "binds"}]}
{"molecule": "NDDPPISIDLTFHLLRNMIEMARIENEREQAGLNRKYLDEV-NH2 (also called sfUI; suckerfishUI)", "note": "[suckerfish urotensin I]", "values": [{"measurement": "binding result", "setting": "[7]", "value": "binds"}, {"measurement": "Ki", "setting": "[8]", "value": 3, "unit": "nM"}, {"measurement": "Ki", "setting": "[9]", "value": "~0.43", "unit": "nM"}]}
